The record followed here is patent publication US20240101570A1 (AMGEN INC., priority 2020, published 2024).

For test [1], the system named is HCT116 MTAP null cells. Nature of the test: HCT116 MTAP null cell proliferation / viability (CellTiter-Glo, 6 days). Conditions: HCT116-MTAP null, 144 h, HCT116 MTAP null cells, 6 days, CellTiter-Glo; read-out: HCT-116 MTAP null IC50. In kind it is cell-based. In outline: (§1)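 Viability read by CellTiter-Glo after 6-day compound exposure of MTAP-null and wild-type HCT116 cells grown in RPMI 1640 with 10% FBS. Dosing used 1:3 steps from 1 or 10 μM (8-9 points) or 1:2 steps from 10 or 50 μM (22 points); IC50 taken where fitted curve crosses 50% of control.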
(Cellular ATP, detected with luciferase, serves as a proxy for viable cell number.)

For test [2], the system named is HCT116 WT cells. Nature of the test: HCT116 WT cell proliferation / viability (CellTiter-Glo, 6 days). Particulars: Homo sapiens, HCT-116, 144 h, HCT116 WT cells, 6 days, CellTiter-Glo; read-out: HCT-116 WT IC50. Format: cell-based. In short, it runs like this:
as §1

As for `CC(C)(C)CN(Cc1ccc(C(F)(F)F)cn1)C(=O)c1ccc2nc(N)c3c(c2c1)COC3(C)C` [Example 340, 4-amino-N-(2,2-dimethylpropyl)-3,3-dimethyl-N-((5-(trifluoromethyl)-2-pyridinyl)methyl)-1,3-dihydrofuro[3,4-c]quinoline-8-carboxamide], the IC50 (as a rule, the midpoint of a concentration-inhibition curve) in test [1] is 2950 nM; in test [2], more than 10000 nM.

For the molecule `CO[C@@H]1COCC[C@H]1N(Cc1ccc(C(F)(F)F)cn1)C(=O)c1ccc2nc(N)c3c(c2c1)COC3C` (stereo partly drawn) [Example 902, 4-amino-N-((3S,4R)-3-methoxytetrahydro-2H-pyran-4-yl)-3-methyl-N-((5-(trifluoromethyl)pyridin-2-yl)methyl)-1,3-dihydrofuro[3,4-c]quinoline-8-carboxamide], the IC50 was determined as 34 nM in test [1] and 330 nM in test [2].

Turning to `C[C@H](c1ncccn1)N(Cc1ccc(C2CC2)nn1)C(=O)c1ccc2nc(N)c3c(c2c1)COC3` [Example 458, 4-amino-N-((6-cyclopropyl-3-pyridazinyl)methyl)-N-((1R)-1-(2-pyrimidinyl)ethyl)-1,3-dihydrofuro[3,4-c]quinoline-8-carboxamide], the IC50 in test [1] is 26 nM; in test [2], 361 nM.

For the molecule `C[C@@H](c1ccc(C(F)(F)F)cc1)N(C)C(=O)c1cc2c(cn1)nc(N)c1cnn(C)c12` (single isomer, unassigned) [Example 599], the IC50 came out at 536 nM in test [1] and 27200 nM in test [2].

On to `CC1OCc2c1c(N)nc1cnc(C(=O)N(C)Cc3ccc(Br)cn3)cc21` (racemic) [Example 433, (3R)-4-amino-N-((5-bromo-2-pyridinyl)methyl)-N,3-dimethyl-1,3-dihydrofuro[3,4-c][1,7]naphthyridine-8-carboxamide and (3S)-4-amino-N-((5-bromo-2-pyridinyl)methyl)-N,3-dimethyl-1,3-dihydrofuro[3,4-c][1,7]naphthyridine-8-carboxamide], for which the half-maximal inhibitory concentration (IC50) in test [1] worked out at 344 nM; in test [2] it was 21200 nM.

Take `Nc1nc2cnc(C(=O)N(Cc3ccc(C4CC4)cn3)C3CC3)cc2c2c1COC2` [Example 348, 4-amino-N-cyclopropyl-N-((5-cyclopropyl-2-pyridinyl)methyl)-1,3-dihydrofuro[3,4-c][1,7]naphthyridine-8-carboxamide]: the results for the IC50 in test [1] and in test [2] were 155 nM and 9040 nM, respectively.

In the case of `CC(C)N(Cc1ccc(C(F)(F)F)cn1)C(=O)c1cc2c3c(c(N)nc2cc1Cl)COC3` [Example 484, 4-amino-7-chloro-N-(2-propanyl)-N-((5-(trifluoromethyl)-2-pyridinyl)methyl)-1,3-dihydrofuro[3,4-c]quinoline-8-carboxamide], the figures for the IC50 in test [1] and in test [2] were 20 nM and 402 nM, respectively.

In the case of `CCN(Cc1ccc(C(F)(F)F)cn1)C(=O)c1cc2c3c(c(N)nc2cc1F)[C@H](C)OC3` [Example 557, (3S)-4-amino-N-ethyl-7-fluoro-3-methyl-N-((5-(trifluoromethyl)-2-pyridinyl)methyl)-1,3-dihydrofuro[3,4-c]quinoline-8-carboxamide], the IC50 in test [1] turned out to be 375 nM; in test [2], 12300 nM.

As for `CC1OCc2c1c(N)nc1ccc(C(=O)N(Cc3ccc(C(F)(F)F)cn3)C3CC34CCCCC4)cc21` (centres unmarked) [Example 905, 4-amino-3-methyl-N-(spiro[2.5]octan-1-yl)-N-((5-(trifluoromethyl)pyridin-2-yl)methyl)-1,3-dihydrofuro[3,4-c]quinoline-8-carboxamide], the IC50 amounted to 80 nM in test [1] and 4600 nM in test [2].

`CCN(C(=O)c1cc2c3c(c(N)nc2cc1F)COC3)C(C)c1ccc(C(F)(F)F)cn1` (racemic) [Example 719, 4-amino-N-ethyl-7-fluoro-N-((1R)-1-(5-(trifluoromethyl)-2-pyridinyl)ethyl)-1,3-dihydrofuro[3,4-c]quinoline-8-carboxamide and 4-amino-N-ethyl-7-fluoro-N-((1S)-1-(5-(trifluoromethyl)-2-pyridinyl)ethyl)-1,3-dihydrofuro[3,4-c]quinoline-8-carboxamide]: the IC50 in test [1] was determined as 1030 nM; in test [2], 21800 nM.

Take `C[C@H](c1ncccn1)N(Cc1ccc(C(F)(F)F)nn1)C(=O)c1ccc2nc(N)c3c(c2c1)COC3` [Example 441, 4-amino-N-((1R)-1-(2-pyrimidinyl)ethyl)-N-((6-(trifluoromethyl)-3-pyridazinyl)methyl)-1,3-dihydrofuro[3,4-c]quinoline-8-carboxamide]: the IC50 in test [1] turned out to be 12 nM; in test [2], 204 nM.

As for `CCN(Cc1ccc(C2CC2)cn1)C(=O)c1ccc2nc(N)c3cnn(C)c3c2c1` [Example 540, 4-amino-N-((5-cyclopropyl-2-pyridinyl)methyl)-N-ethyl-1-methyl-1H-pyrazolo[4,3-c]quinoline-8-carboxamide], the half-inhibitory concentration (IC50) was determined as 39 nM in test [1] and 1480 nM in test [2].

As to `CN(Cc1ccc(C(F)(F)F)cc1)C(=O)c1cc2c(cc1Cl)nc(N)c1cnn(C)c12` [Example 558, 4-amino-7-chloro-N,1-dimethyl-N-(4-(trifluoromethyl)benzyl)-1H-pyrazolo[4,3-c]quinoline-8-carboxamide], the IC50 in test [1] was 19 nM; in test [2], 421 nM.

For `N#Cc1ccc(CN(C(=O)c2cc3c4c(c(N)nc3cc2F)COC4)C2CC2)nc1` [Example 476, 4-amino-N-((5-cyano-2-pyridinyl)methyl)-N-cyclopropyl-7-fluoro-1,3-dihydrofuro[3,4-c]quinoline-8-carboxamide], the IC50 is 1370 nM in test [1] and 4460 nM in test [2].

On to `CCOc1ccc(CN(CC(C)C)C(=O)c2ccc3nc(N)c4c(c3c2)COC4)nn1` [Example 642, 4-amino-N-((6-ethoxy-3-pyridazinyl)methyl)-N-(2-methylpropyl)-1,3-dihydrofuro[3,4-c]quinoline-8-carboxamide], for which the IC50 in test [1] came to 41 nM; in test [2] it was 1300 nM.

For `Nc1nc2cc(F)c(C(=O)N(Cc3ccc(OCC(F)(F)F)nn3)CC3CC3)cc2c2c1COC2` [Example 816, 4-amino-N-(cyclopropylmethyl)-7-fluoro-N-((6-(2,2,2-trifluoroethoxy)-3-pyridazinyl)methyl)-1,3-dihydrofuro[3,4-c]quinoline-8-carboxamide], the concentration for half-maximal inhibition (IC50) in test [1] is 78 nM; in test [2], 2490 nM.

For the molecule `C[C@H](c1ccc(C(F)(F)F)cn1)N(C)C(=O)c1ccc2nc(N)c3cnn(C)c3c2c1` (single isomer, unassigned) [Example 600], the IC50 in test [1] came to 18 nM; in test [2] it was 663 nM.

On to `Cn1cc(N(Cc2ccc(C(F)(F)F)cn2)C(=O)c2cnc3nc(N)c4c(c3c2)COC4)cn1` [Example 886, 4-amino-N-(1-methyl-1H-pyrazol-4-yl)-N-((5-(trifluoromethyl)-2-pyridinyl)methyl)-1,3-dihydrofuro[3,4-c][1,8]naphthyridine-8-carboxamide], for which the IC50 in test [1] is 1690 nM; in test [2] it was more than 10000 nM.

In the case of `CCN(C(=O)c1ccc2nc(N)c3c(c2c1)COC3)C(C)c1ccc(Cl)nc1` (racemic) [Example 727, 4-amino-N-((1R)-1-(6-chloro-3-pyridinyl)ethyl)-N-ethyl-1,3-dihydrofuro[3,4-c]quinoline-8-carboxamide and 4-amino-N-((1S)-1-(6-chloro-3-pyridinyl)ethyl)-N-ethyl-1,3-dihydrofuro[3,4-c]quinoline-8-carboxamide], the IC50 was determined as 279 nM in test [1] and 12300 nM in test [2].

As to `CCN(Cc1ccc(C2CC2)cn1)C(=O)c1cc2c(cc1F)nc(N)c1cnn(C)c12` [Example 545, 4-amino-N-((5-cyclopropyl-2-pyridinyl)methyl)-N-ethyl-7-fluoro-1-methyl-1H-pyrazolo[4,3-c]quinoline-8-carboxamide], the IC50 in test [1] was determined as 7 nM; in test [2], 140 nM.

In the case of `COc1ccc(CN(C(=O)c2ccc3nc(N)c4c(c3c2)COC4)[C@H](C)c2ncccn2)nn1` [Example 446, 4-amino-N-((6-methoxy-3-pyridazinyl)methyl)-N-((1R)-1-(2-pyrimidinyl)ethyl)-1,3-dihydrofuro[3,4-c]quinoline-8-carboxamide], the IC50 is 12 nM in test [1] and 237 nM in test [2].

With `C[C@H]1OCc2c1c(N)nc1ccc(C(=O)N(C)Cc3ccc(S(F)(F)(F)(F)F)cc3)cc21` [Example 514, (3R)-4-amino-N,3-dimethyl-N-(4-(pentafluoro-lambda~6~- sulfanyl)benzyl)-1,3-dihydrofuro[3,4-c]quinoline-8-carboxamide], the IC50 in test [1] worked out at 71 nM; in test [2], 3250 nM.

For the molecule `CCN(Cc1ccc(C(F)(F)F)nc1)C(=O)c1cc2c3c(c(N)nc2cn1)COC3` [Example 704, 4-amino-N-ethyl-N-((6-(trifluoromethyl)-3-pyridinyl)methyl)-1,3-dihydrofuro[3,4-c][1,7]naphthyridine-8-carboxamide], the IC50 in test [1] is 549 nM; in test [2] it was more than 10000 nM.

For `CCN(C(=O)c1ccc2nc(N)c3c(c2c1)CO[C@@H]3C)[C@H](C)c1ccc(C(F)(F)F)cn1` [Example 777, (3R)-4-amino-N-ethyl-3-methyl-N-((1R)-1-(5-(trifluoromethyl)-2-pyridinyl)ethyl)-1,3-dihydrofuro[3,4-c]quinoline-8-carboxamide], the IC50 in test [1] worked out at 25 nM; in test [2] it was 1380 nM.

Take `CN(Cc1ccc(C(F)F)cn1)C(=O)c1cc2c(cc1F)nc(N)c1cnn(C)c12` [Example 525, 4-amino-N-((5-(difluoromethyl)-2-pyridinyl)methyl)-7-fluoro-N,1-dimethyl-1H-pyrazolo[4,3-c]quinoline-8-carboxamide]: the IC50 was determined as 32 nM in test [1] and 2120 nM in test [2].
